# US20240400542A1 (University of Virginia Patent Foundation, priority 2021, published 2024)
# Target: T1, Proteasome subunit alpha type-2 (Homo sapiens, UniProt P25787)
# T1 construct: endogenous in cells; host or cells: HEK293T
# Experiment: SILAC competitive chemical proteomic assay (TH211 probe, LC-MS/MS)
# Format: cell-based
# Conditions: TH207 inhibitor; HEK293T soluble fraction; P25787.2 lysine 92
# Procedure: The light and heavy proteomes (2.3 mg/mL, 432 μL) prepared from HEK293T cells that were pretreated in situ with vehicle (DMSO) or the inhibitor (2 μM), respectively, at 37° C. for 1 hr followed by probe TH211 treatment (50 μM) for 2 h, were directly were subjected to click reaction with the desthiobiotin-PEG3-azide (10 mM in DMSO, 10 μL, final concentration 200 μM) in the presence of TCEP (50 mM, 10 μL), TBTA (1.7 mM, 33 μL) and CuSO4 (50 mM, 10 μL) at room temperature for 1 hr. The light and the heavy samples were mixed in the chloroform-methanol extraction step. The subsequent steps including reduction with dithiothreitol, alkylation with iodoacetamide, digestion with Trypsin/Lys-C, enrichment with avidin beads were conducted as previously described^26.
smiles,measurement,value
"Cc1ccc(S(=O)(=O)n2cc(CCN3CCC(=C(c4ccc(F)cc4)c4ccc(F)cc4)CC3)nn2)cc1 [TH207, 4-(Bis(4-fluorophenyl)methylene)-1-(2-(1-tosyl-1H-1,2,3-triazol-4-yl)ethyl)piperidine]","Normalized SILAC ratio (SR), Proteasome subunit alpha type-2 K92",1.2
